Data on eleven compounds can be found in PubChem BioAssay (NCI).

Some test systems named below: RPMI-8226 leukemia; 786-0 renal; HS 578T breast; SK-OV-3 ovarian; SR leukemia; SF-268 CNS; DU-145 prostate; ACHN renal; IGROV1 ovarian; HCC-2998 colon.
Holding throughout (test): DTP human tumour cell line panel, 48 h

Broadly, the GI50 is the concentration giving 50% growth inhibition. The TGI is the concentration giving total growth inhibition. Read a high TGI as less potent growth arrest.

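Briefly, cells in 96-well plates were exposed to five compound concentrations for 48 h, and endpoints were estimated by linear interpolation. At the GI50, growth is halved. TGI marks complete inhibition of growth.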

For `COc1ccc2c(c1OC)-c1c(c3ccc([N+](=O)[O-])cc3c(=O)n1CCCBr)C2=O`, the GI50 in the experiment with RPMI-8226 leukemia is 25 µM; with 786-0 renal, 21.6 µM; with HS 578T breast it was 70.6 µM; with SK-OV-3 ovarian it was above 100 µM; in the experiment with SR leukemia, 4.67 µM. In addition, the concentration for total growth inhibition (TGI) in the experiment on RPMI-8226 leukemia was above 100 µM; in the experiment with 786-0 renal, 52.1 µM; with HS 578T breast, above 100 µM; in the experiment on SK-OV-3 ovarian, above 100 µM; with SR leukemia it was above 100 µM.

Regarding `O=c1c2cc(-c3ccccc3)sc2ncn1Cc1ccc(Cl)c(Cl)c1`, the GI50 was 26 µM in the experiment with SF-268 CNS; 32.9 µM in the experiment with DU-145 prostate; 22.7 µM in the experiment with ACHN renal; 36.8 µM with RPMI-8226 leukemia; 1.93 µM in the experiment with IGROV1 ovarian; 14.2 µM with 786-0 renal. Besides, the GI50 with HS 578T breast is 11 µM; with SK-OV-3 ovarian, 19.4 µM; in the experiment on SR leukemia, 5.14 µM. Besides, the TGI in the experiment on SF-268 CNS was 80.3 µM; in the experiment with DU-145 prostate, above 100 µM; in the experiment on ACHN renal, 75.6 µM; in the experiment on RPMI-8226 leukemia, above 100 µM; in the experiment on IGROV1 ovarian, 34.9 µM; in the experiment with 786-0 renal, 43.3 µM. Further, the concentration for total growth inhibition (TGI) in the experiment with HS 578T breast came to 45.1 µM; in the experiment with SK-OV-3 ovarian, 58 µM; with SR leukemia it was 17.9 µM.

Take `CSc1ncc(Br)c(Sc2nc(N)nc3nc[nH]c23)n1`: the GI50 in the experiment with SF-268 CNS was 3.6 µM; with DU-145 prostate it was 1.44 µM; with ACHN renal, 4.5 µM; in the experiment on HCC-2998 colon, 2.56 µM; in the experiment with IGROV1 ovarian it was 12.9 µM; in the experiment on 786-0 renal, 3.82 µM. The results for the GI50 with HS 578T breast and with SK-OV-3 ovarian were 6.71 µM and 1.62 µM, respectively. Further, the TGI in the experiment with SF-268 CNS was 85.6 µM; with DU-145 prostate, 23.9 µM; in the experiment on ACHN renal, 43.6 µM; with HCC-2998 colon, 16.2 µM; in the experiment with IGROV1 ovarian it was 44.2 µM; with 786-0 renal, above 100 µM. Also, the TGI with HS 578T breast is above 100 µM; in the experiment on SK-OV-3 ovarian, 10.3 µM.

Turning to `Cc1cc(C)nc(/C(=N\NC(N)=O)C(=O)Nc2nc3ccc(C)cc3s2)c1`, the TGI was above 100 µM in the experiment on SF-268 CNS; above 100 µM with ACHN renal; above 69.6 µM in the experiment on RPMI-8226 leukemia; above 100 µM with HCC-2998 colon; above 100 µM in the experiment with IGROV1 ovarian; above 100 µM in the experiment on 786-0 renal. Moreover, the TGI in the experiment on SK-OV-3 ovarian is above 100 µM; in the experiment with SR leukemia it was 40.7 µM.

As for `CCc1cccc(C)c1N1C(=O)C(=O)C(c2nc3ccccc3o2)C(=O)C1=O`, the concentration for total growth inhibition (TGI) in the experiment on SF-268 CNS, in the experiment with ACHN renal, with RPMI-8226 leukemia, in the experiment with HCC-2998 colon, in the experiment on IGROV1 ovarian and in the experiment with 786-0 renal was above 100 µM in each case. Further, the total growth inhibition concentration (TGI) in the experiment on SK-OV-3 ovarian and in the experiment on SR leukemia was above 100 µM throughout.

With `Cn1c(=O)c2[nH]c(SCCN3CCOCC3)nc2n(C)c1=S`, the TGI in the experiment on SF-268 CNS, with DU-145 prostate, in the experiment on ACHN renal, with RPMI-8226 leukemia, in the experiment with IGROV1 ovarian and with 786-0 renal was above 100 µM throughout. Besides, the TGI in the experiment with HS 578T breast, in the experiment on SK-OV-3 ovarian and in the experiment on SR leukemia was above 100 µM each time.

In the case of `CCC(C)Oc1nc2c(c(=O)n(C)c(=O)n2C)n1C` (configuration not stated), the GI50 in the experiment on SF-268 CNS, with DU-145 prostate, in the experiment on ACHN renal, in the experiment with IGROV1 ovarian, with 786-0 renal and in the experiment on SK-OV-3 ovarian was above 100 µM throughout. For the same compound, the GI50 with SR leukemia was above 100 µM. Also, the TGI with SF-268 CNS, in the experiment with DU-145 prostate, with ACHN renal, in the experiment on IGROV1 ovarian, with 786-0 renal and in the experiment with SK-OV-3 ovarian was above 100 µM each time. Moreover, the TGI with SR leukemia is above 100 µM.

On to `CN(Cc1ccc(C(F)(F)F)cc1)CC(O)C(=O)Nc1ccc(Cl)cc1` (configuration not stated), for which the GI50 in the experiment with SF-268 CNS was 1.4 µM; with DU-145 prostate, 1.38 µM; with ACHN renal, 1.55 µM; in the experiment with RPMI-8226 leukemia, 1.02 µM; in the experiment on HCC-2998 colon, 1.66 µM; in the experiment on IGROV1 ovarian, 1.46 µM. Further, the GI50 is 1.44 µM with 786-0 renal and 1.48 µM in the experiment with SK-OV-3 ovarian. In addition, the TGI was 2.95 µM in the experiment on SF-268 CNS; 2.77 µM with DU-145 prostate; 2.92 µM in the experiment with ACHN renal; 2.8 µM with RPMI-8226 leukemia; 3.08 µM in the experiment on HCC-2998 colon; 3.04 µM with IGROV1 ovarian. Moreover, the results for the TGI in the experiment with 786-0 renal and in the experiment with SK-OV-3 ovarian were 2.84 µM and 2.96 µM, respectively.

For the compound `C[Si](C)(c1ccc(C(=O)O)cc1)c1ccc(C(=O)O)cc1`, the TGI with SF-268 CNS, in the experiment with DU-145 prostate, in the experiment with ACHN renal, with RPMI-8226 leukemia, with IGROV1 ovarian and in the experiment on 786-0 renal was above 100 µM throughout. Besides, the TGI in the experiment on HS 578T breast, in the experiment with SK-OV-3 ovarian and in the experiment with SR leukemia was above 100 µM in each case.

Consider `NCCCCC1NC(=O)C(CC(=O)O)NC(=O)CNC(=O)C(CCCN=C(N)N)NC(=O)C(N)CSSCC(C(=O)O)NC(=O)C(CC(=O)O)NC(=O)C2CCCN2C(=O)CNC1=O` (configuration not stated), for which the GI50 with SF-268 CNS, in the experiment on DU-145 prostate, in the experiment with ACHN renal, in the experiment with HCC-2998 colon, in the experiment with IGROV1 ovarian and with 786-0 renal was above 100 µM each time. The GI50 with HS 578T breast and in the experiment on SK-OV-3 ovarian was above 100 µM each time. The TGI in the experiment on SF-268 CNS, in the experiment on DU-145 prostate, in the experiment with ACHN renal, with HCC-2998 colon, in the experiment on IGROV1 ovarian and with 786-0 renal was above 100 µM in each case. Also, the TGI in the experiment with HS 578T breast and in the experiment with SK-OV-3 ovarian was above 100 µM in each case.

Take `CCOC(=O)CCC1(C(=O)OCC)CCCC1=O` (configuration not stated): the TGI in the experiment with SF-268 CNS is above 100 µM; with ACHN renal, above 100 µM; in the experiment on RPMI-8226 leukemia it was 77.4 µM; in the experiment with HCC-2998 colon, above 100 µM; with IGROV1 ovarian, above 100 µM; in the experiment with 786-0 renal, above 100 µM. In addition, the TGI in the experiment on SK-OV-3 ovarian was above 100 µM; in the experiment on SR leukemia it was 60.4 µM.
